Assay [1] has as its system Escherichia coli XL1. The experiment in a line: Antibacterial activity, MIC. It is filed as cell-based. The conditions noted are these: 24 h incubation, 37°C. An excerpt: In order to evaluate the antimicrobial activity of the synthesized 4′–NO2–fenH and its Co(II) complexes 1–4, two Gram-positive (B. subtilis and S. aureus) and two Gram-negative (X. campestris and E. coli) strains were used. In general, the increased antimicrobial activity of the complexes is attributed to five main factors: (i) the chelation effect of the ligands, (ii) the chemical nature of the ligands, (iii) the nature and the nuclearity of the metal center, (iv) the total charge of the complex and (v) the presence and nature of counter ions. […]
S2 Antibacterial Activity studies
The antibacterial activity of the compounds was evaluated by determining their respective MIC values towards two Gram–(–) (Escherichia coli XL1 (E. coli) and Xanthomonas campestris ATCC 1395 (X. campestris)) and two Gram–(+) (Staphylococcus aureus ATCC 29213 (S. aureus) and Bacillus subtilis ATCC 6633 (B. subtilis)) bacterial species. Cultures of these microbial strains were grown on a rich selective agar medium and stored at 4°C. The selective media used were Nutrient Agar or Broth for B. subtilis and S. aureus, Yeast Mold Agar or Broth for X. campestris and Luria Agar or Broth for E. coli. Cells picked from the surface of the stored cultures were used to initiate liquid pre–cultures of the same selective medium at an initial turbidity of roughly 1 McFarland unit.
Pre–cultures were incubated for 24 h in a rotary shaking incubator and subsequently they were used to inoculate the test cultures used for the determination of MIC at an initial turbidity of 0.5 McFarland units. The test cultures consisted of Mueller–Hinton broth (Deben Diagnostics Ltd) containing different concentrations of the compounds. Different concentrations were achieved as follows: the compounds were freshly dissolved in DMSO to a concentration of 1 mg/mL, and they were diluted with DMSO, using the method of progressive double dilution. Therefore, working solutions with decreasing concentrations of the compounds under investigation were achieved.
The working solutions were subsequently diluted to the final desired concentration by addition to the growth medium at a proportion of 2:98. MIC values were determined as the lowest concentrations of the tested compounds that inhibited visible growth of each respective organism after a 24 h incubation. Bacterial growth was determined by measuring the turbidity of appropriately diluted cultures at 600 nm with reference to equally diluted sterile growth medium and the inhibition achieved was calculated by comparing the turbidity of each culture to the average of the turbidity of three non–inhibited cultures. All test cultures were grown in triplicates and for the determination of MIC, growth had to be inhibited in at least two cultures of the triplicate. The incubation temperature at all stages was 37°C except for X. campestris that was cultivated at 28°C [4].

Assay [2] is described as follows: Reduction of hydrogen peroxide. The conditions noted are these: compounds 0.1 mM; phosphate buffer pH 7.4; 10 min. As to the method:
Harmful hydroxyl radicals are released when hydrogen peroxide interacts with transition metal ions, leading to oxidative stress. Consequently, both oxidative stress and the production of reactive oxygen species could be reduced by ^•OH scavengers and H2O2 reducing agents.
(§1) S1 Antioxidant activity assay
The antioxidant activity of the compound was evaluated via the ability to scavenge in vitro free radicals such as DPPH and ABTS and to reduce H2O2. […]
S1.3 Reduction of hydrogen peroxide
The ability of the compounds to reduce hydrogen peroxide (H2O2) was estimated according to the method described in the literature. The reaction mixture contained 20 μL of each of the tested compounds (0.1 mM) and 5 μL H2O2 solution (40 mM) in phosphate […]
buffer (50 mM, pH 7.4). The absorbance was measured at 230 nm after 10 min. The antioxidant activity (reduction of H2O2) of the compounds was expressed as the percentage decrease of the initial H2O2 solution (H2O2%). […]

Assay [3] can be described thus: ABTS radical cation scavenging. The conditions noted are these: compounds 0.1 mM; absorbance 734 nm after 1 min. The protocol: The ABTS-scavenging was measured through the discoloration of a dark green solution containing the cationic radical ABTS^•+, which was induced from the oxidation derived from hydrogen-donating antioxidants, either complexes or standards, and is often considered a marker of total oxidation capacity. […] Such an increase in activity upon coordination is expected for metal–NSAID complexes.
as §1
The antioxidant activity of the compound was evaluated via the ability to scavenge in vitro free radicals such as DPPH and ABTS and to reduce H2O2. All the experiments were carried out at least in triplicate and the standard deviation of absorbance was less than 10% […]
S1.2 Assay of radical cation ABTS−scavenging activity
The ABTS assay was performed to determine the activity of the compounds to scavenge the radical cation ABTS. Initially, a water solution of ABTS was prepared (2 mM).
ABTS radical cation (ABTS+·) was produced by the reaction of ABTS stock solution with potassium persulfate (0.17 mM) and the mixture was stored in the dark at room temperature for 12−16 h before its use. The ABTS was oxidized incompletely because the stoichiometric reaction ratio of ABTS and potassium persulfate is 1:0.5. The absorbance became maximal and stable only after more than 6 h of reaction although the oxidation of the ABTS started immediately. The radical was stable in this form for more than 2 days when allowed to stand in the dark at room temperature. Afterwards, the ABTS+· solution was diluted in ethanol to an absorbance of 0.70 at 734 nm and 10 μL of diluted compounds or standards (0.1 mM) in DMSO were added. The absorbance was recorded out exactly 1 min after initial mixing.
The ABTS–radical scavenging activity of the compounds was expressed as the percentage inhibition of the absorbance of the initial ABTS solution (ABTS%). […]

Several values for one entry are separate records, joined by “and”; a condition that tells them apart may be missing. Identical values can stand only once. A value given as a limit tells only on which side of the number the result lay.

Experimental findings from PMC12195967, “Cobalt(II) Complexes of 4′–Nitro–Fenamic Acid: Characterization and Biological Evaluation” (Molecules, 2025) are described below.

Regarding `CO.CO.CO.CO.O=C([O-])c1ccccc1Nc1ccc([N+](=O)[O-])cc1.O=C([O-])c1ccccc1Nc1ccc([N+](=O)[O-])cc1.[Co+2]` [Complex 1, [Co(4′–NO2–fen)2(MeOH)4]], in assay [1], the “MIC, E. coli” value is more than 50 µg/mL. Further, the MIC in assay [1] (value in parentheses) is recorded as more than 71 µM. Besides, the “H2O2-reducing ability (H2O2%)” value in assay [2] amounted to 72.68 ± 0.63%. In addition, the “%ABTS radical scavenging activity (ABTS%)” value in assay [3] is recorded as 24.68 ± 0.35%.

Regarding `O=C(O)c1ccccc1Nc1ccc([N+](=O)[O-])cc1` [4′–NO2–fenH, 4′–nitrofenamic acid], the MIC in assay [1] (Escherichia coli, XL1) is 25 µg/mL; in assay [1] (Escherichia coli, XL1, value in parentheses) it was 97 µM. The “H2O2-reducing ability (H2O2%)” value in assay [2] is 66.46% and 66.46 ± 0.33%. For the same compound, in assay [3], the “%ABTS radical scavenging activity (ABTS%)” value is “Not active”.

On to `C[O-].C[O-].Cc1ccc2ccc3ccc(C)nc3c2n1.Cc1ccc2ccc3ccc(C)nc3c2n1.O=C([O-])c1ccccc1Nc1ccc([N+](=O)[O-])cc1.O=C([O-])c1ccccc1Nc1ccc([N+](=O)[O-])cc1.[Co+2].[Co+2]` [Complex 4, [Co2(4′–NO2–fen)2(μ–CH3O)2(neoc)2]], for which the “MIC, E. coli” value in assay [1] was more than 50 µg/mL. Moreover, in assay [1] (value in parentheses), the MIC is more than 45 µM. The “H2O2-reducing ability (H2O2%)” value in assay [2] came out at 72.44 ± 0.42%. Besides, the “%ABTS radical scavenging activity (ABTS%)” value in assay [3] was 21.39 ± 0.22%.

Regarding `O=C([O-])c1ccccc1Nc1ccc([N+](=O)[O-])cc1.O=C([O-])c1ccccc1Nc1ccc([N+](=O)[O-])cc1.[Co+2].c1cnc2c(c1)ccc1cccnc12` [Complex 3, [Co(4′–NO2–fen)2(phen)]], the “MIC, E. coli” value in assay [1] amounted to 25 µg/mL. The MIC in assay [1] (value in parentheses) came out at 33 µM. Besides, the “H2O2-reducing ability (H2O2%)” value in assay [2] was determined as 69.48 ± 0.37%. In assay [3], the “%ABTS radical scavenging activity (ABTS%)” value is 48.12 ± 0.88%.

Consider `O=C([O-])c1ccccc1Nc1ccc([N+](=O)[O-])cc1.O=C([O-])c1ccccc1Nc1ccc([N+](=O)[O-])cc1.[Co+2].c1ccc(Nc2ccccn2)nc1` [Complex 2, [Co(4′–NO2–fen)2(bipyam)]], for which the “MIC, E. coli” value in assay [1] is more than 50 µg/mL. In assay [1] (value in parentheses), the MIC is reported as more than 67 µM. The “H2O2-reducing ability (H2O2%)” value in assay [2] is 77.59 ± 0.28%. For the same compound, in assay [3], the “%ABTS radical scavenging activity (ABTS%)” value came to 43.65 ± 0.37%.

As a reminder, the MIC is the lowest concentration that inhibits growth of the organism.
